Consider two compounds from ChEMBL document CHEMBL4321812, “Structure-based rational design of staurosporine-based fluorescent probe with broad-ranging kinase affinity for kinase panel application” (Bioorg Med Chem Lett, 2019).

In experiment [1] the target is Testis-specific serine/threonine-protein kinase 1 (Homo sapiens, UniProt Q9BXA7). The experiment in a line: Binding affinity to recombinant full-length N-terminal His-FLAG-GST-tagged TSSK1B (unknown origin) expressed in baculovirus infected Sf9 insect cells incubated for 1 hr by TR-FRET assay.
Experiment [2] concerns the target Calcium/calmodulin-dependent protein kinase kinase 2 (Homo sapiens, UniProt Q96RR4). Description: Binding affinity to recombinant full-length N-terminal His-FLAG-GST-tagged CAMKK2 (unknown origin) expressed in baculovirus infected Sf9 insect cells incubated for 1 hr in presence of calmodulin by TR-FRET assay.
The target of experiment [3] is NUAK family SNF1-like kinase 1 (Homo sapiens, UniProt O60285). Description: Binding affinity to recombinant full-length N-terminal His-FLAG-GST-tagged NUAK1 (unknown origin) expressed in baculovirus infected Sf9 insect cells incubated for 1 hr by TR-FRET assay.
NUAK family SNF1-like kinase 1, sequence (O60285 whole entry): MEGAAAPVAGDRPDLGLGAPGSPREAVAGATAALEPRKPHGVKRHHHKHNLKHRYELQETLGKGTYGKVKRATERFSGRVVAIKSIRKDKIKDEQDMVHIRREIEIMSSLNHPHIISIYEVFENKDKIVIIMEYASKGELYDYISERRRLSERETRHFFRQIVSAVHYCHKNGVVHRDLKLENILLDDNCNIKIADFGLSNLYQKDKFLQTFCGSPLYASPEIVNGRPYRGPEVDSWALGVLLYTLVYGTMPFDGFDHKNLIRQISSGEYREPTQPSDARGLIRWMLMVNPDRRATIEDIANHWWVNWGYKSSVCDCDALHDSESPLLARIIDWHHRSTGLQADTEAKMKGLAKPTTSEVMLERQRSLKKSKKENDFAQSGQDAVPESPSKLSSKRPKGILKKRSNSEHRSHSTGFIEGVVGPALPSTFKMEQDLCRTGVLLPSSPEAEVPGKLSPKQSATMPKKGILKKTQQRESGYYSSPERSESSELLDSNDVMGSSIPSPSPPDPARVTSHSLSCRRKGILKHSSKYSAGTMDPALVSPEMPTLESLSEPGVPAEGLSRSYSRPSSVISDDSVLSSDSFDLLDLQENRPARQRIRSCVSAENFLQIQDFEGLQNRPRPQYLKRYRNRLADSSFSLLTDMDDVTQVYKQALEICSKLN
Experiment [4] deals with Mitogen-activated protein kinase 15 (Homo sapiens, UniProt Q8TD08). The experiment in a line: Binding affinity to recombinant full-length N-terminal His-FLAG-GST-tagged MAPK15 (unknown origin) expressed in baculovirus infected Sf9 insect cells incubated for 1 hr by TR-FRET assay.
Mitogen-activated protein kinase 15, sequence (Q8TD08 whole entry, the tested form may be a part): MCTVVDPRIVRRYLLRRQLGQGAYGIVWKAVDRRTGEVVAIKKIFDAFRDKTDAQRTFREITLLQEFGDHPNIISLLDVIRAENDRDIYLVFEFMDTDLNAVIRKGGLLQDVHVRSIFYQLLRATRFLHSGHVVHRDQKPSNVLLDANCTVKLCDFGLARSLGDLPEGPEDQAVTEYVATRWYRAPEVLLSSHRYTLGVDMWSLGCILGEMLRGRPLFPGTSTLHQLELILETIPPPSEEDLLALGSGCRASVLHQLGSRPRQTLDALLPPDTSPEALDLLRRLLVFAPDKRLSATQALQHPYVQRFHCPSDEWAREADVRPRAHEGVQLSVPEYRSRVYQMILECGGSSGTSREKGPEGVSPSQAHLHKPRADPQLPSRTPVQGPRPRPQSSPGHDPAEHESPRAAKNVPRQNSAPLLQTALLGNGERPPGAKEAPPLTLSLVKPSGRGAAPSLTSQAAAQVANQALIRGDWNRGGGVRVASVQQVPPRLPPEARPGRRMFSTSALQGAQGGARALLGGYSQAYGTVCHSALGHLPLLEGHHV
For experiment [5], the target named is Leukocyte tyrosine kinase receptor (Homo sapiens, UniProt P29376). The experiment in a line: Binding affinity to recombinant full-length N-terminal His-FLAG-GST-tagged LTK (unknown origin) (498 to 796 residues) expressed in baculovirus infected Sf9 insect cells incubated for 1 hr by TR-FRET assay.
Experiment [6] concerns the target Serine/threonine-protein kinase BRSK1 (Homo sapiens, UniProt Q8TDC3). The experiment in a line: Binding affinity to recombinant full-length N-terminal His-FLAG-GST-tagged BRSK1 (unknown origin) expressed in baculovirus infected Sf9 insect cells incubated for 1 hr by TR-FRET assay.
Experiment [7] can be described thus: Binding affinity to recombinant human full-length N-terminal […] MKNK1 T334D mutant expressed in baculovirus expression system using RS peptide as substrate incubated for 1 hr by TR-FRET assay.
The target of experiment [8] is Vascular endothelial growth factor receptor 3 (Homo sapiens, UniProt P35916). Description: Binding affinity to recombinant N-terminal His-FLAG-GST-tagged FLT4 (unknown origin) (798 to 1298 residues) expressed in baculovirus infected Sf9 insect cells incubated for 1 hr by TR-FRET assay.
The target in experiment [9] is Death-associated protein kinase 2 (Homo sapiens, UniProt Q9UIK4). Description: Binding affinity to recombinant full-length N-terminal His-FLAG-GST-tagged DAPK2 (unknown origin) expressed in baculovirus infected Sf9 insect cells incubated for 1 hr by TR-FRET assay.
Experiment [10] addresses Tyrosine-protein kinase Fgr (Homo sapiens, UniProt P09769). Description: Binding affinity to recombinant full-length N-terminal His-FLAG-tagged FGR (unknown origin) expressed in baculovirus infected Sf9 insect cells incubated for 1 hr by TR-FRET assay.
Experiment [11] has as its target Tyrosine-protein kinase FRK (Homo sapiens, UniProt P42685). Description: Binding affinity to recombinant full-length N-terminal His-FLAG-GST-tagged FRK (unknown origin) (223 to 505 residues) expressed in baculovirus infected Sf9 insect cells incubated for 1 hr […] by TR-FRET assay.
Experiment [12] deals with Serine/threonine-protein kinase pim-1 (Homo sapiens, UniProt P11309). The experiment in a line: Binding affinity to recombinant human full-length N-terminal his-tagged PIM1 expressed in baculovirus expression system using S6K2 peptide as substrate incubated for 1 hr by TR-FRET assay.
In experiment [13] the target is Fibroblast growth factor receptor 4 (Homo sapiens, UniProt P22455). Description: Binding affinity to recombinant N-terminal His-FLAG-GST-tagged FGFR4 (unknown origin) (460 to 802 residues) expressed in baculovirus infected Sf9 insect cells incubated for 1 hr by TR-FRET assay.
Experiment [14] deals with MAP/microtubule affinity-regulating kinase 3 (Homo sapiens, UniProt P27448). The experiment in a line: Binding affinity to recombinant full-length N-terminal His-FLAG-GST-tagged MARK3 (unknown origin) expressed in baculovirus infected Sf9 insect cells incubated for 1 hr by TR-FRET assay.
MAP/microtubule affinity-regulating kinase 3, sequence (P27448 whole entry): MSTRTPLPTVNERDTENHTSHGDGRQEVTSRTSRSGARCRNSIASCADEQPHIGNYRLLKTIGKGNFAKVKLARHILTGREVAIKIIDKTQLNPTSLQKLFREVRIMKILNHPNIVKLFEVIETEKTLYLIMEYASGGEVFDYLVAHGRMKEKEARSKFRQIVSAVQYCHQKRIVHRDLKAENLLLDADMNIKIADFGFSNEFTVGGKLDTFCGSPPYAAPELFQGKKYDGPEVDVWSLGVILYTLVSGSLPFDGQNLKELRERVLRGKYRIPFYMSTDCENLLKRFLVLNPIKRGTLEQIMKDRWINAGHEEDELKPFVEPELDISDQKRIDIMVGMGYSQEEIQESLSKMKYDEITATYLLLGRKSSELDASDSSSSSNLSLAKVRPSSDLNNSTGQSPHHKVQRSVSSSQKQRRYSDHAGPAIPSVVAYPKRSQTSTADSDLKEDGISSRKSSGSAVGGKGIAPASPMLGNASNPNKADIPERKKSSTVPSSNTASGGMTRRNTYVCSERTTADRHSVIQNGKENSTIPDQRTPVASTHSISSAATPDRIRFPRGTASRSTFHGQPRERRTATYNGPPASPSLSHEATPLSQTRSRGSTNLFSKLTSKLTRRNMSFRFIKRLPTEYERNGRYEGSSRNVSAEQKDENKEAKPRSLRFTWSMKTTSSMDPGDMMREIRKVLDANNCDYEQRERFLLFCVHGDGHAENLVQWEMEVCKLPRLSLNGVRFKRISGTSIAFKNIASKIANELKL
The target in experiment [15] is Dual specificity protein kinase CLK2 (Homo sapiens, UniProt P49760). The experiment in a line: Binding affinity to recombinant full-length N-terminal His-FLAG-GST-tagged CLK2 (unknown origin) expressed in baculovirus infected Sf9 insect cells incubated for 1 hr by TR-FRET assay.
Experiment [16] addresses STE20-like serine/threonine-protein kinase (Homo sapiens, UniProt Q9H2G2). Description: Binding affinity to recombinant N-terminal His-FLAG-GST-tagged SLK (unknown origin) (1 to 1152 residues) expressed in baculovirus infected Sf9 insect cells incubated for 1 hr by TR-FRET assay.
In experiment [17] the target is Serine/threonine-protein kinase MARK1 (Homo sapiens, UniProt Q9P0L2). The experiment in a line: Binding affinity to recombinant full-length N-terminal His-FLAG-tagged MARK1 (unknown origin) expressed in baculovirus infected Sf9 insect cells incubated for 1 hr by TR-FRET assay.
In experiment [18] the target is cAMP-dependent protein kinase catalytic subunit gamma (Homo sapiens, UniProt P22612). Description: Binding affinity to recombinant full-length N-terminal His-FLAG-GST-tagged PRKACG (unknown origin) expressed in baculovirus infected Sf9 insect cells incubated for 1 hr by TR-FRET assay.
cAMP-dependent protein kinase catalytic subunit gamma, sequence (P22612 whole entry): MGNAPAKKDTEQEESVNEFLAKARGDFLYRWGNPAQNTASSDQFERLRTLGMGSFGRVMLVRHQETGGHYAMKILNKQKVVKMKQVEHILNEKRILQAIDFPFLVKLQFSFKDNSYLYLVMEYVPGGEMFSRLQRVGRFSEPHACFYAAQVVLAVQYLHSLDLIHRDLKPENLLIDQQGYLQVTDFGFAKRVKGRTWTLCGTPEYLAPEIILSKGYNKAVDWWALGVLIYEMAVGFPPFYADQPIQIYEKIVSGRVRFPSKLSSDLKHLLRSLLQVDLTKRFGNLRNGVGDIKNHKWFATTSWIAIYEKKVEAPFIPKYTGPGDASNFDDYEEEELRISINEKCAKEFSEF
Experiment [19] deals with Serine/threonine-protein kinase Sgk2 (Homo sapiens, UniProt Q9HBY8). Description: Binding affinity to recombinant full-length N-terminal His-FLAG-tagged SGK2 (unknown origin) expressed in baculovirus infected Sf9 insect cells incubated for 1 hr by TR-FRET assay.
Serine/threonine-protein kinase Sgk2, sequence (Q9HBY8 whole entry, the tested form may be a part): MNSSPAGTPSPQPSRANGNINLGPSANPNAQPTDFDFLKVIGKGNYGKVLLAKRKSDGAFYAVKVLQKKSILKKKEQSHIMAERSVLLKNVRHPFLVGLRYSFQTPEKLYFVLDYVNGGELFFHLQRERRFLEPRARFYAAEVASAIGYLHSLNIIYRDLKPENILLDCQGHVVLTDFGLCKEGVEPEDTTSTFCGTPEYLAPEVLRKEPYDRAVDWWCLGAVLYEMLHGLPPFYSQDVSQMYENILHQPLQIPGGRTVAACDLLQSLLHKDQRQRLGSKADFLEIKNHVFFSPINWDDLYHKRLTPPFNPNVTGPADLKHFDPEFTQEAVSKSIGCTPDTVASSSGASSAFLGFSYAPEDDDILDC
The target of experiment [20] is Tyrosine-protein kinase HCK (Homo sapiens, UniProt P08631). Description: Binding affinity to recombinant full-length N-terminal His-FLAG-GST-tagged HCK (unknown origin) (25 to 526 residues) expressed in baculovirus infected Sf9 insect cells incubated for 1 hr by TR-FRET assay.
Tyrosine-protein kinase HCK, sequence (P08631 whole entry, the tested form may be a part, canonical isoform): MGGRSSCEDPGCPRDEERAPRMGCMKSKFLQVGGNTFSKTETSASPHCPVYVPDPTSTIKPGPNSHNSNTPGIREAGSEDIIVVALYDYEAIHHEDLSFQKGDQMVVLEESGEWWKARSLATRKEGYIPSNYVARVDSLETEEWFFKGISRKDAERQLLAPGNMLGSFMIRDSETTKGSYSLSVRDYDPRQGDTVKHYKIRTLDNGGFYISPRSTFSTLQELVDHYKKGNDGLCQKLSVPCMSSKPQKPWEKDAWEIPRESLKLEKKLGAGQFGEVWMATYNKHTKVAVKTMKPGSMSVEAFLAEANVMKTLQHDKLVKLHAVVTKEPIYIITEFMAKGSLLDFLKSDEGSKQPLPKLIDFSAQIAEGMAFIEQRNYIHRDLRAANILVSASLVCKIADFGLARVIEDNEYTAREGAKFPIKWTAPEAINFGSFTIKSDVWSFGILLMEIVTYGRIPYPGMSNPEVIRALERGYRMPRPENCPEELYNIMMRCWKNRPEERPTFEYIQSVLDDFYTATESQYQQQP
The target in experiment [21] is Phosphorylase b kinase gamma catalytic chain, skeletal muscle/heart isoform (Homo sapiens, UniProt Q16816). Description: Binding affinity to recombinant full-length N-terminal His-FLAG-GST-tagged PHKG1 (unknown origin) expressed in baculovirus infected Sf9 insect cells incubated for 1 hr by TR-FRET assay.
The target in experiment [22] is Tyrosine-protein kinase Mer (Homo sapiens, UniProt Q12866). The experiment in a line: Binding affinity to recombinant full-length N-terminal His-FLAG-GST-tagged MERTK (unknown origin) (528 to 999 residues) expressed in baculovirus infected Sf9 insect cells incubated for 1 hr by TR-FRET assay.
In experiment [23] the target is Ribosomal protein S6 kinase beta-1 (Homo sapiens, UniProt P23443, T412E). The experiment in a line: Binding affinity to recombinant human full length N-terminal GST-tagged RPS6KB1 T412E mutant expressed in baculovirus expression system using S6K2 peptide as substrate incubated for 1 hr by TR-FRET assay.
Ribosomal protein S6 kinase beta-1, sequence (P23443 whole entry T412E): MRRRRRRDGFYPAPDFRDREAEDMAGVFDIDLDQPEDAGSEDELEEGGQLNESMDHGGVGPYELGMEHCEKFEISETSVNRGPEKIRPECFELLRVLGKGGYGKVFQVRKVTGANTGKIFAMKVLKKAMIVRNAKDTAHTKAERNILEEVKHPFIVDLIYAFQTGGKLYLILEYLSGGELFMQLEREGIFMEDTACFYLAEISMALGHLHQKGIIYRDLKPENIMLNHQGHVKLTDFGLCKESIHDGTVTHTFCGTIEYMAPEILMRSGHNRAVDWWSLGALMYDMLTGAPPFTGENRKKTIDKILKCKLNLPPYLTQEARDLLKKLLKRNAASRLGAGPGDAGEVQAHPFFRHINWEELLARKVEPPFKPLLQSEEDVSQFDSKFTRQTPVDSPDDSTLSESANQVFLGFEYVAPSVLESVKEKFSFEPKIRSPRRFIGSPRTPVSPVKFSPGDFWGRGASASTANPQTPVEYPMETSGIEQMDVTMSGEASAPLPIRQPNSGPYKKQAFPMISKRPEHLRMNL
Experiment [24] deals with Protein kinase C gamma type (Homo sapiens, UniProt P05129). The experiment in a line: Binding affinity to recombinant full-length N-terminal His-FLAG-tagged PRKCG (unknown origin) expressed in baculovirus infected Sf9 insect cells incubated for 1 hr by TR-FRET assay.

STE20-like serine/threonine-protein kinase, sequence (Q9H2G2 whole entry, the tested form may be a part): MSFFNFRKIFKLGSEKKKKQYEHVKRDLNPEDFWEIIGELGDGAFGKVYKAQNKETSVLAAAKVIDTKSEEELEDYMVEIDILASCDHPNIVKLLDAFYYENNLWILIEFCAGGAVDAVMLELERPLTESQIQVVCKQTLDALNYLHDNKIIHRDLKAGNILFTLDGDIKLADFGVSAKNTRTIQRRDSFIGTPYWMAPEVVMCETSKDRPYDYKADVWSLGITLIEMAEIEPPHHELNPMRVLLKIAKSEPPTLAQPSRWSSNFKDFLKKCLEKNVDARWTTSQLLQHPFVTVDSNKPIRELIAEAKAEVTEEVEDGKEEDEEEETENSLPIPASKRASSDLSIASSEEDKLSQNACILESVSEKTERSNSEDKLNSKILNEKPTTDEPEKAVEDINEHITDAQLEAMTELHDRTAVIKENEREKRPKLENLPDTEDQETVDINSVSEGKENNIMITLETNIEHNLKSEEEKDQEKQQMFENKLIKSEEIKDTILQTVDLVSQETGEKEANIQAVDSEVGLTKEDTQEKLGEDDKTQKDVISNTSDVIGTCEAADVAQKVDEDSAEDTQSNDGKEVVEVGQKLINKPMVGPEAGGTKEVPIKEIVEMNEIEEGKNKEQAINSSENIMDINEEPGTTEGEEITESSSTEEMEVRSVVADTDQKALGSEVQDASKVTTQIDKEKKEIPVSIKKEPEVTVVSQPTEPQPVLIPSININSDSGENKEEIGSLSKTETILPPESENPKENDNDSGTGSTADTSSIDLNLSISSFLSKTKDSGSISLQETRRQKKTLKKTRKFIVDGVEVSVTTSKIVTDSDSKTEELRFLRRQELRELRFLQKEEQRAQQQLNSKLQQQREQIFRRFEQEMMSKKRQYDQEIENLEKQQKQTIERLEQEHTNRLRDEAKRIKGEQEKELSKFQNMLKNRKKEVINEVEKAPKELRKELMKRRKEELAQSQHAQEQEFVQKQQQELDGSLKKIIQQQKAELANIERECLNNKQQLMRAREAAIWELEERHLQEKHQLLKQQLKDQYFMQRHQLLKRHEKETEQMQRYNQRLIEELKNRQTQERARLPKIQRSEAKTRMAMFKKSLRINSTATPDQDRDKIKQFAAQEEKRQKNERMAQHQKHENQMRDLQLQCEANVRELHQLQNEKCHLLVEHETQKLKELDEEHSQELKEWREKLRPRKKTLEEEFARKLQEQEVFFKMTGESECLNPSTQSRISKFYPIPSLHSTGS

Turning to `CO[C@@H]1[C@H](NCCOCCOCCOCCNC(=O)CCC2=[N+]3C(=Cc4c(C)cc(C)n4[B-]3(F)F)C=C2)C[C@H]2O[C@]1(C)n1c3ccccc3c3c4c(c5c6ccccc6n2c5c31)C(=O)NC4`, the Kd in experiment [1] was determined as 0.018 µM; in experiment [2], 0.002 µM; in [3], 0.015 µM; in experiment [4] it was 0.113 µM; in experiment [5], 0.193 µM; in experiment [6] it was 0.109 µM. Besides, the Kd in [7] stood at 0.028 µM; in experiment [8], 0.061 µM; in experiment [9], 0.034 µM; in experiment [10] it was 0.101 µM; in experiment [11], 0.332 µM; in experiment [12], 0.207 µM. In addition, the Kd in experiment [13] stood at 0.718 µM; in [14], 0.013 µM; in [15], 0.318 µM; in [16], 0.005 µM; in experiment [17] it was 0.009 µM; in experiment [18] it was 0.148 µM. Also, the dissociation constant Kd is 1.22 µM in experiment [19]; 0.263 µM in experiment [20]; 0.001 µM in [21]; 0.107 µM in experiment [22]; 0.04 µM in experiment [23]; 0.072 µM in [24].
Take `CO[C@@H]1[C@H](N(C)CCOCCOCCOCCNC(=O)CCC2=[N+]3C(=Cc4c(C)cc(C)n4[B-]3(F)F)C=C2)C[C@H]2O[C@]1(C)n1c3ccccc3c3c4c(c5c6ccccc6n2c5c31)C(=O)NC4`: the Kd in experiment [1] came out at 0.019 µM; in experiment [2] it was 0.006 µM; in experiment [3], 0.013 µM; in experiment [4], 0.306 µM; in experiment [5] it was 0.193 µM; in experiment [6], 0.194 µM. The Kd worked out at 0.037 µM in experiment [7]; 0.078 µM in experiment [8]; 0.06 µM in [9]; 0.119 µM in [10]; 0.372 µM in experiment [11]; 0.285 µM in experiment [12]. The Kd in experiment [13] amounted to 1.49 µM; in [14] it was 0.006 µM; in [15], 0.396 µM; in experiment [16], 0.006 µM; in experiment [17], 0.003 µM; in experiment [18] it was 0.154 µM. Further, the Kd in experiment [19] was determined as 1.77 µM; in experiment [20], 0.28 µM; in experiment [21], 0.003 µM; in [22], 0.108 µM; in experiment [23], 0.013 µM; in experiment [24], 0.046 µM.
